Drawing on patent publication US11427548B2 (Arvinas Operations, Inc., priority 2015, dated 2022), this text covers Dmax and DC50 for ten molecules.

The target of this assay is T1, Androgen Receptor (Homo sapiens, UniProt P10275).
T1 construct: endogenous in cells; host or cells: VCaP cells
T1 sequence (P10275 1-920): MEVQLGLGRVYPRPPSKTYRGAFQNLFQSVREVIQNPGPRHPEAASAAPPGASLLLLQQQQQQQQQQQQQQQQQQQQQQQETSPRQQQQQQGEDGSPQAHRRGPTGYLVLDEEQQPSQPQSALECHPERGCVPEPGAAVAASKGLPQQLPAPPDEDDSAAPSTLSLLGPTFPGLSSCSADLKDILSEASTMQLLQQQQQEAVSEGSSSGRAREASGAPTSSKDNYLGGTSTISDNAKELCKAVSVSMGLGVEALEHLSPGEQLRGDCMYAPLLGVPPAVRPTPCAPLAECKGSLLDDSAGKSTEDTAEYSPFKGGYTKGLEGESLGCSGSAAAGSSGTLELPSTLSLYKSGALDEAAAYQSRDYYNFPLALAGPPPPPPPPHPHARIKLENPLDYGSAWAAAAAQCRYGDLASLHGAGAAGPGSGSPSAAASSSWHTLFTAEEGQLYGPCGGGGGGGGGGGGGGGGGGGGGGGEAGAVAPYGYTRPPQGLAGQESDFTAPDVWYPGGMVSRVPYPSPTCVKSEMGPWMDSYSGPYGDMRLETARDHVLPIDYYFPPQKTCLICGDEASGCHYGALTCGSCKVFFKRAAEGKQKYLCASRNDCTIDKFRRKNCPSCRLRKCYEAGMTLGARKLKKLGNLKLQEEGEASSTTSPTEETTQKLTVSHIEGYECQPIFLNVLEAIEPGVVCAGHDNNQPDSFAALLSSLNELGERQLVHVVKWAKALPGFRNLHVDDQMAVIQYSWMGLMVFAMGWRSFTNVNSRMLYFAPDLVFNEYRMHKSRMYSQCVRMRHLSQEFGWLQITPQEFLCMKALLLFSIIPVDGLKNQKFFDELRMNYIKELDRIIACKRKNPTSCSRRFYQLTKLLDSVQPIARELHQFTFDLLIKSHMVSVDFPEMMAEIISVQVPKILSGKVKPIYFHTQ
The experiment in a line: Androgen Receptor ELISA assay (PathScan AR ELISA) in VCaP cells: AR degradation, Dmax and DC50. In kind it is cell-based. The essentials: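 VCaP cells in phenol red-free RPMI with 5% charcoal-stripped FBS were grown at least 3 days, then given compound as 7 half-log doses in 0.1% DMSO with 0.1 nM R1881 for 24 h. Lysates went into a sandwich AR ELISA with TMB read at 450 nm.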
In general terms: In an ELISA, binding on a coated surface is turned into a signal by an enzyme label.

The mark [1] stands for this setting: read-out: VCaP DC50; VCaP cells; Table 36.
Setting [2] is: VCaP cells; Table 36; read-out: VCaP DC50.
Where [3] appears, read: VCaP, VCaP cells; Table 36; read-out: VCaP Dmax (%).

Read-outs that look alike come from different tables or passages of the source.

The Dmax is the largest share of the target that was removed. For orientation: DC50 means the concentration giving 50% degradation. As for `Cc1ncsc1-c1ccc([C@H](C)NC(=O)[C@@H]2C[C@@H](O)CN2C(=O)[C@@H](NC(=O)CN2CCOCCN(CCOc3ccc(N4C(=S)N(c5ccc(C#N)c(C(F)(F)F)c5)C(=O)C4(C)C)cc3)CCOCC2)C(C)(C)C)cc1` [Example 643, (2S,4R)-1-((S)-2-(2-(10-(2-(4-(3-(4-cyano-3-(trifluoromethyl)phenyl)-5,5-dimethyl-4-oxo-2-thioxoimidazolidin-1-yl)phenoxy)ethyl)-1,7-dioxa-4,10-diazacyclododecan-4-yl)acetamido)-3,3-dimethylbutanoyl)-4-hydroxy-N-((S)-1-(4-(4-methylthiazol-5-yl)phenyl)ethyl)pyrrolidine-2-carboxamide], the Dmax (VCaP, read-out: VCaP Dmax (%)) was less than 25%. For the same molecule, under setting [1], the DC50 was greater than 501 nM.

For `Cc1ncsc1-c1ccc([C@H](C)NC(=O)[C@@H]2C[C@@H](O)CN2C(=O)[C@@H](NC(=O)Cc2ccnc(N3CCN(c4ccc(C(=O)N[C@H]5C(C)(C)[C@H](Oc6ccc(C#N)c(Cl)c6)C5(C)C)cn4)CC3)c2)C(C)(C)C)cc1` [Example 644, N-((1r,3r)-3-(3-chloro-4-cyanophenoxy)-2,2,4,4-tetramethylcyclobutyl)-6-(4-(4-(2-(((S)-1-((2S,4R)-4-hydroxy-2-(((S)-1-(4-(4-methylthiazol-5-yl)phenyl)ethyl)carbam-oyl)pyrrolidin-1-yl)-3,3-dimethyl-1-oxobutan-2-yl)amino)-2-oxoethyl)pyridin-2-yl)piperazin-1-yl)nicotinamide], the DC50 under setting [2] was less than 50 nM. The Dmax under setting [3] is greater than 71%.

Turning to `Cc1ncsc1-c1ccc(CNC(=O)[C@@H]2C[C@@H](O)CN2C(=O)[C@@H](NC(=O)CN2CCN(CCOc3ccc(C(=O)N[C@H]4C(C)(C)[C@H](Oc5ccc(C#N)c(Cl)c5)C4(C)C)cc3)CC2)C(C)(C)C)cc1` [Example 645, (2S,4R)-1-((S)-2-(2-(4-(2-(4-(((1r,3r)-3-(3-chloro-4-cyanophenoxy)-2,2,4,4-tetramethylcyclobutyl)carbamoyl)phenoxy)eth-yl)piperazin-1-yl)acetamido)-3,3-dimethylbutanoyl)-4-hydroxy-N-(4-(4-methylthiazol-5-yl)benzyl)pyrrolidine-2-carboxamide], under setting [2], the DC50 was less than 50 nM. Moreover, the Dmax under setting [3] is 51 to 70%.

`Cc1ncsc1-c1ccc(CNC(=O)[C@@H]2C[C@@H](O)CN2C(=O)[C@@H](NC(=O)CN2CCN(CCOc3ccc(C(=O)N[C@H]4C(C)(C)[C@H](Oc5ccc(C#N)c(C(F)(F)F)c5)C4(C)C)cc3)CC2)C(C)(C)C)cc1` [Example 646, (2S,4R)-1-((S)-2-(2-(4-(2-(4-(((1r,3r)-3-(4-cyano-3-(trifluoromethyl)phenoxy)-2,2,4,4-tetramethylcyclobutyl)carbamoyl)phenoxy)eth-yl)piperazin-1-yl)actamido)-3,3-dimethylbutanoyl)-4-hydroxy-N-(4-(4-methylthiazol-5-yl)benzyl)pyrrolidine-2-carboxamide]: the DC50 under setting [2] was less than 50 nM. For the same molecule, the Dmax under setting [3] lay within 26 to 50%.

On to `Cc1ncsc1-c1ccc([C@H](C)NC(=O)[C@@H]2C[C@@H](O)CN2C(=O)[C@@H](C(C)C)n2cc(OCCCOCCCn3cnc(-c4ccc(N5C(=S)N(c6ccc(C#N)c(C(F)(F)F)c6)C(=O)C5(C)C)cc4)c3)cn2)cc1` [Example 647, (2S,4R)-1-((R)-2-(4-(3-(3-(4-(4-(3-(4-cyano-3-(trifluoromethyl)phenyl)-5,5-dimethyl-4-oxo-2-thhioxoimidazolidin-1-yl)phenyl)-1H-imidazol-1-yl)propoxy)propoxy)-1H-pyrazol-1-yl)-3-methylbutanoyl)-4-hydroxy-N-((S)-1-(4-(4-methylthiazol-5-yl)phenyl)ethyl)pyrrolidine-2-carboxamide], for which, where the note is “VCaP, read-out: VCaP Dmax (%)”, the Dmax was less than 25%. Besides, the DC50 under setting [1] was greater than 501 nM.

Take `Cc1ncsc1-c1ccc([C@H](C)NC(=O)[C@@H]2C[C@@H](O)CN2C(=O)[C@H](C(C)C)n2cc(OCCCOCCCn3cnc(-c4ccc(N5C(=S)N(c6ccc(C#N)c(C(F)(F)F)c6)C(=O)C5(C)C)cc4)c3)cn2)cc1` [Example 648, (2S,4R)-1-((S)-2-(4-(3-(3-(4-(4-(3-(4-cyano-3-(trifluoromethyl)phenyl)-5,5-dimethyl-4-oxo-2-thioxoimidazolidin-1-yl)phenyl)-1H-imidazol-1-yl)propoxy)propoxy)-1H-pyrazol-1-yl)-3-methylbutanoyl)-4-hydroxy-N-((S)-1-(4-(4-methylthiazol-5-yl)phenyl)ethyl)pyrrolidine-2-carboxamide]: under “VCaP, read-out: VCaP Dmax (%)”, the Dmax was less than 25%. The DC50 under setting [1] was greater than 501 nM.

Turning to `CC[C@H](NC(=O)[C@@H]1C[C@@H](O)CN1C(=O)[C@@H](NC(=O)COCCN1CCN(c2ccc(C(=O)N[C@H]3C(C)(C)[C@H](Oc4ccc(C#N)c(Cl)c4)C3(C)C)cn2)CC1)C(C)(C)C)c1ccc(-c2scnc2C)cc1` [Example 649, N-((1r,3r)-3-(3-chloro-4-cyanophenoxy)-2,2,4,4-tetramethylcyclobutyl)-6-(4-(2-(2-(((S)-1-((2S,4R)-4-hydroxy-2-(((S)-1-(4-(4-methylthiazol-5-yl)phenyl)propyl)carbam-moyl)pyrrolidin-1-yl)-3,3-dimethyl-1-oxobutan-2-yl)amino)-2-oxoethoxy)ethyl)pipera-zin-1-yl)nicotinamide], the DC50 under setting [2] is less than 50 nM. In addition, the Dmax under setting [3] is greater than 71%.

Regarding `Cc1ncsc1-c1ccc([C@H](C)NC(=O)[C@@H]2C[C@@H](O)CN2C(=O)C(C(C)C)n2cnc(CCCCOCCCCCOc3ccc(N4C(=S)N(c5ccc(C#N)c(C(F)(F)F)c5)C(=O)C4(C)C)cc3)c2)cc1` (some centres unmarked) [Example 650, 1-(2-(4-(4-((5-(4-(3-(4-cyano-3-(trifluoromethyl)phenyl)-5,5-dimethyl-4-oxo-2-thioxoimidazolidin-1-yl)phenoxy)pentyl)oxy)butyl)-1H-imidazol-1-yl)-3-methylbutanoyl)-4-hydroxy-N-(1-(4-(4-methylthiazol-5-yl)phenyl)ethyl)pyrroli-dine-2-carboxamide], the Dmax (VCaP, read-out: VCaP Dmax (%)) was less than 25%. In addition, the DC50 under setting [1] was greater than 501 nM.

In the case of `Cc1ncsc1-c1ccc([C@H](C)NC(=O)[C@@H]2C[C@@H](OC(=O)OC(C)C)CN2C(=O)[C@@H](NC(=O)COCCCCCNc2ccc(C(=O)N[C@H]3C(C)(C)[C@H](Oc4ccc(C#N)c(Cl)c4)C3(C)C)cc2)C(C)(C)C)cc1` [Example 652, (3R,5S)-1-((S)-2-(2-((5-((4-(((1r,3r)-3-(3-chloro-4-cyanophenoxy)-2,2,4,4-tetramethylcyclobutyl)carbamoyl)phenyl)amino)pentyl)oxy)acetamido)-3,3-dimethylbutanoyl)-5-(((S)-1-(4-(4-methylthiazol-5-yl)phenyl)ethyl)carbam-oyl)pyrrolidin-3-yl isopropyl carbonate], the DC50 under setting [2] is greater than 501 nM. Moreover, under setting [3], the Dmax was less than 25%.

On to `Cc1ncsc1-c1ccc(C(C)NC(=O)[C@@H]2C[C@@H](OCOC(=O)OC(C)C)CN2C(=O)[C@@H](NC(=O)COCCCCCNc2ccc(C(=O)N[C@H]3C(C)(C)[C@H](Oc4ccc(C#N)c(Cl)c4)C3(C)C)cc2)C(C)(C)C)cc1` (stereo partly drawn) [Example 653, (((3R,5S)-1-((S)-2-(2-((5-((4-(((1r,3r)-3-(3-chloro-4-cyanophenoxy)-2,2,4,4-tetramethylcyclobutyl)carbamoyl)phenyl)amino)pentyl)oxy)acetamido)-3,3-dimethylbutanoyl)-5-(((S)-1-(4-(4-methylthiazol-5-yl)phenyl)ethyl)carbam-oyl)pyrrolidin-3-yl)oxy)methyl isopropyl carbonate], for which the DC50 under setting [2] is less than 50 nM. In addition, the Dmax under setting [3] was 51 to 70%.
